Consider ten molecules from ChEMBL document CHEMBL5316365, “Anti-Neuroinflammatory Meroterpenoids from a Chinese Collection of the Brown Alga Sargassum siliquastrum” (J Nat Prod, 2023).

Broadly, the IC50 is the concentration at which inhibition is half-maximal. As usually defined, the CC50 is the concentration giving 50% cytotoxicity. The low end stands for harm at low concentration, the high end for better tolerance by the cells.

The source made the active and inactive calls. The rule behind the calls is not given here. A value given as a limit tells only on which side of the number the result lay.

The subject of data set [1] is BV-2. The experiment in a line: Anti-neuroinflammatory activity in LPS-induced mouse BV-2 cells assessed as inhibition of NO production pretreated for 4 hrs followed by LPS stimulation for 24 hrs by griess reagent based assay. The data set is classed as functional, cell-based. (Griess reagent forms a coloured azo dye with nitrite.)
Data set [2] in a line: Cytotoxicity against mouse BV-2 cells incubated for 24 hrs by MTT assay. The data set is classed as toxicity, cell-based.
The target in data set [3] is Transcription factor p65 (Mus musculus) (UniProt Q04207). Put plainly: Inhibition of NF-kappaB p65 translocation from cytosol to nucleus in LPS-induced mouse BV-2 cells at 5 to 10 uM pretreated for 4 hrs followed by LPS stimulation and measured after 24 hrs by Western blot analysis. The class given is cell-based. The note with it: dose 5-10 µM, time 28.0 hrs. (In general: Immunoblotting shows a protein as a band on a membrane.)
Sequence of Transcription factor p65 (Mus musculus) (Q04207 whole entry): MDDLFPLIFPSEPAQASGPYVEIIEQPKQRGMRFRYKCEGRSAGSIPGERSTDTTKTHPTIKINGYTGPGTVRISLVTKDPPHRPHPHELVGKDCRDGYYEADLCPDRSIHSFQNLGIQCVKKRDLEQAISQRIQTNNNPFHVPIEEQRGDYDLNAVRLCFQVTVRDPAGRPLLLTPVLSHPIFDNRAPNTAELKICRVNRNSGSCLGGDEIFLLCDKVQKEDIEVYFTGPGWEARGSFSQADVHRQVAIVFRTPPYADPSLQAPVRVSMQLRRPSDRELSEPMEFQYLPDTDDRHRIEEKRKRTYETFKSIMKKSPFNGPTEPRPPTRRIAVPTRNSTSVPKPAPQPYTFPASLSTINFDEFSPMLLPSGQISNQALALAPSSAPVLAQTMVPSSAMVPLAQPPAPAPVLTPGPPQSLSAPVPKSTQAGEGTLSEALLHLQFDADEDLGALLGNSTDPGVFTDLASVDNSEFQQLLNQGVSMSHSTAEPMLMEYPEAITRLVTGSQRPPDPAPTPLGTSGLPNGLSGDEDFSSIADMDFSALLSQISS

The test system of data set [4] is BV-2. The experiment in a line: Antineuroinflammatory activity in LPS-induced mouse BV-2 cells assessed as decrease in IL-1beta protein level pretreated for 4 hrs followed by LPS stimulation for 24 hrs by ELISA. To be noted: dose 2.5-10 µM, time 28.0 hrs. The data set is classed as functional, cell-based.
For data set [5], the system named is BV-2. The experiment in a line: Antineuroinflammatory activity in LPS-induced mouse BV-2 cells assessed as decrease in IL-6 protein level pretreated for 4 hrs followed by LPS stimulation for 24 hrs by ELISA. The data set is classed as functional, cell-based. The note with it: dose 2.5-10 µM, time 28.0 hrs.
Data set [6] relates to BV-2. The experiment in a line: Antineuroinflammatory activity in LPS-induced mouse BV-2 cells assessed as decrease in TNFalpha protein level pretreated for 4 hrs followed by LPS stimulation for 24 hrs by ELISA. To be noted: dose 2.5-10 µM, time 28.0 hrs. The data set is classed as functional, cell-based. (ELISA stands for enzyme-linked immunosorbent assay.)
Data set [7] has as its system BV-2. The experiment in a line: Antineuroinflammatory activity in LPS-induced mouse BV-2 cells assessed as decrease in IL-1beta mRNA level preincubated for 4 hrs followed by LPS stimulation and measured after 6 hrs by RT-PCR method. The data set is classed as functional, cell-based. To be noted: dose 2.5-10 µM, time 10.0 hrs.
Data set [8] relates to BV-2. Put plainly: Antineuroinflammatory activity in LPS-induced mouse BV-2 cells assessed as decrease in IL-6 mRNA level preincubated for 4 hrs followed by LPS stimulation and measured after 6 hrs by RT-PCR method. The class given is functional, cell-based. To be noted: dose 2.5-10 µM, time 10.0 hrs.
Data set [9] has as its system BV-2. Put plainly: Antineuroinflammatory activity in LPS-induced mouse BV-2 cells assessed as decrease in TNFalpha mRNA level preincubated for 4 hrs followed by LPS stimulation and measured after 6 hrs by RT-PCR method. The data set is classed as functional, cell-based. To be noted: dose 2.5-10 µM, time 10.0 hrs.
For data set [10], the system named is BV-2. Put plainly: Antineuroinflammatory activity in LPS-induced mouse BV-2 cells assessed as downregulation of NF-kappaB p65 protein expression in nucleus at 5 to 10 uM pretreated for 4 hrs followed by LPS stimulation and measured after 24 hrs by Western blot analysis. The data set is classed as functional, cell-based. The note with it: dose 5-10 µM, time 28.0 hrs.

Data set [11] deals with BV-2. Put plainly: Effect on NF-kbeta p65 total protein level in mouse BV-2 cells at 5 to 10 uM pretreated for 4 hrs followed by LPS stimulation and measured after 24 hrs by Western blot analysis. The class given is functional, cell-based. The note with it: dose 5-10 µM, time 28.0 hrs.
The subject of data set [12] is BV-2. Put plainly: Antineuroinflammatory activity in LPS-induced mouse BV-2 cells assessed as upregulation of IkappaB protein level in nucleus at 5 to 10 uM pretreated for 4 hrs followed by LPS stimulation and measured after 24 hrs by Western blot analysis. The data set is classed as functional, cell-based. The note with it: dose 5-10 µM, time 28.0 hrs.
In data set [13] the test system is BV-2. The experiment in a line: Antineuroinflammatory activity in LPS-induced mouse BV-2 cells assessed as downregulation of IKK protein level in nucleus at 5 to 10 uM pretreated for 4 hrs followed by LPS stimulation and measured after 24 hrs by Western blot analysis. The note with it: dose 5-10 µM, time 28.0 hrs. The class given is functional, cell-based.
The target of data set [14] is Transcription factor p65 (Mus musculus) (UniProt Q04207). The experiment in a line: Inhibition of NF-kappaB p65 translocation from cytosol to nucleus in LPS-induced mouse BV-2 cells at 2.5 to 10 uM pretreated for 4 hrs followed by LPS stimulation and measured after 24 hrs by immunofluorescence analysis. The data set is classed as cell-based. To be noted: dose 2.5-10 µM, time 28.0 hrs.

With `CC(C)=C[C@H](O)[C@@H](O)/C(C)=C/CC/C(C)=C/CC[C@]1(C)CCc2cc(O)c(C)c(C)c2O1`, the IC50 in data set [1] amounted to 25 µM. In addition, in data set [2], the CC50 at 24 h is greater than 50 µM.
On the same counts, the results for `CC(C)=CC(=O)C/C(C)=C/CC/C(C)=C/CC[C@]1(C)CCc2cc(O)cc(C)c2O1` are greater than 30 µM and greater than 50 µM.
For the molecule `C/C(=C\CC[C@]1(C)CCc2cc(O)cc(C)c2O1)CC/C=C(\C)C(=O)C(=O)CC(C)C`, the IC50 in [1] is 8 µM. In [2], this molecule came in with a CC50 at 24 h greater than 50 µM.
On the same counts, the results for `C=C(CC/C=C(\C)[C@H](O)[C@@H](O)C=C(C)C)C(=O)CC[C@]1(C)CCc2cc(O)cc(C)c2O1` are 19 µM and greater than 50 µM.
In the case of `C/C(=C\CC[C@]1(C)CCc2cc(O)cc(C)c2O1)CC/C=C(\C)C(=O)/C=C/C(C)(C)O`, in [1], the IC50 amounted to 13 µM. Moreover, in data set [2], the CC50 at 24 h is greater than 50 µM.
The like results for `CC(C)=CC(=O)C(=O)/C(C)=C/CC/C(C)=C/CC[C@]1(C)CCc2cc(O)cc(C)c2O1` were, in that order, greater than 30 µM and greater than 50 µM.
Consider `CC(=O)/C=C/C/C(C)=C/CC[C@]1(C)CCc2cc(O)cc(C)c2O1`, for which the IC50 in [1] stood at 2 µM. Moreover, in [2], the CC50 at 24 h was greater than 50 µM. Besides, the inhibition entry in data set [3] and in data set [14] was “Active” each time. The Activity result in data set [4], in data set [5], in data set [6], in data set [7], in [8] and in data set [9] was “Dose-Dependent Effect” throughout. The outcome in data set [10], in data set [12] and in data set [13] was Active. The outcome in [11] was inactive.
On to `CC(C)=CC(CO)/C(=C/CC/C(C)=C/CC[C@]1(C)CCc2cc(O)cc(C)c2O1)CO` (some centres not stated), for which the IC50 in data set [1] was 5 µM. Besides, the CC50 at 24 h in data set [2] was greater than 50 µM.
The like results for `C/C(=C\CC[C@]1(C)CCc2cc(O)cc(C)c2O1)CC/C=C(\C)C(=O)/C=C/C(C)(C)OO` were, in that order, 29 µM and greater than 50 µM.
As for `CC(C)=CC(O)C(=O)/C(C)=C/[C@H](O)C/C(C)=C/CC[C@]1(C)CCc2cc(O)cc(C)c2O1` (some centres not stated), the IC50 in data set [1] is 6 µM. Also, the CC50 at 24 h in data set [2] was greater than 50 µM.
